pIC50: −log10 of the molar value.
Molecular target: T1, PTP-1B (Homo sapiens, UniProt P18031)
T1 construct: PTP-1B (purified, 1 mg/mL) as a 1:250 dilution
T1 sequence (P18031 1-321 limits assumed): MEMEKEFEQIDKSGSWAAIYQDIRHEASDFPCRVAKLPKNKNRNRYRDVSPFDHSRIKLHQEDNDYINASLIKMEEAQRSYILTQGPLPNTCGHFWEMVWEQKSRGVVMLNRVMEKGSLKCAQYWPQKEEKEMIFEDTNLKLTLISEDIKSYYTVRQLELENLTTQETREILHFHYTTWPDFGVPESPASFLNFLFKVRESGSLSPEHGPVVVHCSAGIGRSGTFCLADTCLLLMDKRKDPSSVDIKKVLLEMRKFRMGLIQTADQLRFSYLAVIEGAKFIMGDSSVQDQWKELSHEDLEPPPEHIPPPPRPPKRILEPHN
Assay: pNPP assay for tyrosine phosphatase inhibitory activity
Assay type: biochemical
Conditions: Table 1; pNPP substrate 10 mM, 30° C., 10 minutes, absorbance at 405 nm
Description: The compounds provided herein are evaluated for biological activity as inhibitors of PTP-1B using, for example, a pNPP assay. Such an assay can be used to screen compounds for tyrosine phosphatase inhibitory activity as shown in Example 39.
A 5× stock of pNPP (p-nitrophenol phosphate) substrate is prepared as 50 mM pNPP in assay buffer. Various tyrosine phosphatase solutions can be prepared as follows: • PTP-1B (purified, 1 mg/mL) as a 1:250 dilution (to a final concentration of 4:g/mL); • TC-PTP (NEB, 1000 units in 100:L) as a 1:50 dilution (to a final concentration of 2 U/10:L (4:g/mL)); • CD45 (Calbiochem, 20:g, 400 units in 100: L) as a 1 :50 dilution (to a final concentration of 0.8 U/10:L (4:g/mL)); • LAR (NEB, 1000 units in 200:L) as a 1:75 dilution (to a final concentration of 0.7 U/10:L (4:g/mL)); and • PTP-β (UBI, #14-350, 10,000 units, 40:g/571:L) as a 1:17.5 dilution (to a final concentration of 10 U/10:L (4:g/mL));
The compound to be tested is prepared as 1:16.7 and 1:50 dilutions from stock in a total volume of 1 00:M DMSO to give final concentrations of 626 and 200:M. The reaction mixtures are prepared in a 96-well microtiter plate (on ice) as 55:L assay buffer, 5:L of the diluted compound (to a final concentration of 31.3 and 10:M), 20:L of the pNPP substrate solution (to a final concentration of 10 mM) and 20:L PTPase in assay buffer. The reactants are mixed well, the plate placed in a water bath at 30° C. and incubated for 10 minutes. The reaction is then terminated by adding 1 OO:L of 2M K2CO3 per well, and the absorbance is measured at 405 nm by conventional means.
Unless otherwise indicated, this assay was used to determine activity for the selected compounds whose activity is recorded in Table 1 and Table 2.

Row | Compound | pIC50
1 | CS(=O)(=O)c1ccc(-c2cnc(N(Cc3ccc(/C=C/C(=O)O)c(Br)c3)c3ccc(Cl)c(Cl)c3)o2)cc1 [3-[2-Bromo-4-({(3,4-dichloro-phenyl)-(5-(4-methanesulfonyl-phenyl)-oxazol-2-yl]-amino}-methyl)-phenyl]-acrylic acid] | 4.00 to 5.00
2 | COC(=O)c1ccc(CN(Cc2ccc(C(F)(F)P(=O)(O)O)cc2)c2nnc(-c3cccc(Oc4ccccc4)c3)o2)cc1 [4-({[4-(Difluoro-phosphono-methyl)-benzyl]-[5-(3-phenoxy-phenyl)-[1,3,4]oxadiazol-2-yl]-amino}-methyl)-benzoic acid methyl ester] | 4.00 to 5.00
3 | O=C(O)c1ccc(CN(Cc2ccc(C(F)(F)P(=O)(O)O)cc2)c2nnc(-c3cccc(Oc4ccccc4)c3)o2)cc1 [4-({[4-(Difluoro-phosphono-methyl)-benzyl]-[5-(3-phenoxy-phenyl)-[1,3,4]oxadiazol-2-yl]-amino}-methyl)-benzoic acid] | 5.00 to 6.00
4 | O=P(O)(O)C(F)(F)c1ccc(CN(c2ccc(Cl)c(Cl)c2)c2ncc(-c3ccccc3)o2)cc1Br [Example 1, [(2-Bromo-4-{[(3,4-dichloro-phenyl)-(5-phenyl-oxazol-2-yl)-amino]-methyl}-phenyl)-difluoro-methyl]-phosphonic acid] | 5.00 to 6.00
5 | COC(=O)c1ccc(-c2cnc(N(Cc3ccc(C(F)(F)P(=O)(O)O)c(Br)c3)c3ccc(Cl)c(Cl)c3)o2)cc1 [Example 2, 4-{2-[[3-Bromo-4-(difluoro-phosphono-methyl)-benzyl]-(3,4-dichloro-phenyl)-amino]-oxazol-5-yl}-benzoic acid methyl ester] | 6.00 to 6.30
6 | O=C(O)c1ccc(-c2cnc(N(Cc3ccc(C(F)(F)P(=O)(O)O)c(Br)c3)c3ccc(Cl)c(Cl)c3)o2)cc1 [Example 3, 4-{2-[[3-Bromo-4-(difluoro-phosphono-methyl)-benzyl]-(3,4-dichloro-phenyl)-amino]-oxazol-5-yl}-benzoic acid] | > 7.00
7 | COC(=O)c1ccc(-c2cnc(N(Cc3ccc(C(F)(F)P(=O)(O)O)c(Br)c3)c3ccccc3)o2)cc1 [Example 4, 4-(2-{[3-Bromo-4-(difluoro-phosphono-methyl)-benzyl]-phenyl-amino}-oxazol-5-yl)-benzoic acid methyl ester] | 5.00 to 6.00
8 | O=C(O)c1ccc(-c2cnc(N(Cc3ccc(C(F)(F)P(=O)(O)O)c(Br)c3)c3ccccc3)o2)cc1 [Example 5, 4-(2-{[3-Bromo-4-(difluoro-phosphono-methyl)-benzyl]-phenyl-amino}-oxazol-5-yl)-benzoic acid] | 6.30 to 7.00
9 | CS(=O)(=O)c1ccc(-c2cnc(N(Cc3ccc(C(F)(F)P(=O)(O)O)c(Br)c3)c3ccc(Cl)c(Cl)c3)o2)cc1 [Example 6, {[2-Bromo-4-({(3,4-dichloro-phenyl)-[5-(4-methanesulfonyl-phenyl)-oxazol-2-yl]-amino}-methyl)-phenyl]-difluoro-methyl}-phosphonic acid] | > 7.00
10 | CCOP(=O)(OCC)C(F)(F)c1ccc(CN(c2ccc(Cl)c(Cl)c2)c2ncc(-c3ccc(Oc4ccc(C(=O)OC)cc4)cc3)o2)cc1Br [Example 7, 4-(4-{2-[{3-Bromo-4-[(diethoxy-phosphoryl)-difluoro-methyl]-benzyl}-(3,4-dichloro-phenyl)-amino]-oxazol-5-yl}-phenoxy)-benzoic acid methyl ester] | 4.00 to 5.00
11 | CCOP(=O)(OCC)C(F)(F)c1ccc(CN(c2ccc(Cl)c(Cl)c2)c2ncc(-c3ccc(S(C)(=O)=O)cc3)o2)cc1Br [Example 8, {[2-Bromo-4-({(3,4-dichloro-phenyl)-[5-(4-methanesulfonyl-phenyl)-oxazol-2-yl]-amino}-methyl)-phenyl]-difluoro-methyl}-phosphonic acid diethyl ester] | 4.00 to 5.00
12 | CCOP(=O)(O)C(F)(F)c1ccc(CN(c2ccc(Cl)c(Cl)c2)c2ncc(-c3ccc(S(C)(=O)=O)cc3)o2)cc1Br [Example 9, {[2-Bromo-4-({(3,4-dichloro-phenyl)-[5-(4-methanesulfonyl-phenyl)-oxazol-2-yl]-amino}-methyl)-phenyl]-difluoro-methyl}-phosphonic acid monoethyl ester] | 4.00 to 5.00
13 | COC(=O)c1ccc(Oc2ccc(-c3cnc(N(Cc4ccc(C(F)(F)P(=O)(O)O)c(Br)c4)c4ccc(Cl)c(Cl)c4)o3)cc2)cc1 [Example 10, 4-(4-{2-[[3-Bromo-4-(difluoro-phosphono-methyl)-benzyl]-(3,4-dichloro-phenyl)-amino]-oxazol-5-yl}-phenoxy)-benzoic acid methyl ester] | 5.00 to 6.00
14 | CC(C)(C)C(=O)OCOP(=O)(O)C(F)(F)c1ccc(CN(c2ccc(Cl)c(Cl)c2)c2ncc(-c3ccc(S(C)(=O)=O)cc3)o2)cc1Br [Example 11, 2,2-Dimethyl-propionic acid {[2-bromo-4-({(3,4-dichloro-phenyl)-[5-(4-methanesulfonyl-phenyl)-oxazol-2-yl]-amino}-methyl)-phenyl]-difluoro-methyl}-hydroxy-phosphinoyloxymethyl ester] | 4.00 to 5.00
15 | O=C(O)c1ccc(Oc2ccc(-c3cnc(N(Cc4ccc(C(F)(F)P(=O)(O)O)c(Br)c4)c4ccc(Cl)c(Cl)c4)o3)cc2)cc1 [Example 12, 4-(4-{2-[[3-Bromo-4-(difluoro-phosphono-methyl)-benzyl]-(3,4-dichloro-phenyl)-amino]-oxazol-5-yl}-phenoxy)-benzoic acid] | 6.30 to 7.00
16 | COC(=O)C(Oc1cccc(-c2cnc(N(Cc3ccc(C(F)(F)P(=O)(O)O)c(Br)c3)c3ccc(Cl)c(Cl)c3)o2)c1)c1ccccc1 (centres unmarked) [Example 13, (3-{2-[[3-Bromo-4-(difluoro-phosphono-methyl)-benzyl]-(3,4-dichloro-phenyl)-amino]-oxazol-5-yl}-phenoxy)-phenyl-acetic acid methyl ester] | 5.00 to 6.00

The next lines start with the values.

Row | pIC50 | Compound
17 | 5.00 to 6.00 | COC(=O)c1ccccc1Oc1cccc(-c2cnc(N(Cc3ccc(C(F)(F)P(=O)(O)O)c(Br)c3)c3ccc(Cl)c(Cl)c3)o2)c1 [Example 14, 2-(3-{2-[[3-Bromo-4-(difluoro-phosphono-methyl)-benzyl]-(3,4-dichloro-phenyl)amino]-oxazol-5-yl}-phenoxy)-benzoic acid methyl ester]
18 | 5.00 to 6.00 | COC(=O)c1ccccc1-c1ccc(-c2cnc(N(Cc3ccc(C(F)(F)P(=O)(O)O)c(Br)c3)c3ccc(Cl)c(Cl)c3)o2)cc1 [Example 15, 4′-{2-[[3-Bromo-4-(difluoro-phosphono-methyl)-benzyl]-(3,4-dichloro-phenyl)-amino]-oxazol-5-yl}-biphenyl-2-carboxylic acid methyl ester]
19 | > 7.00 | O=C(O)C(Oc1cccc(-c2cnc(N(Cc3ccc(C(F)(F)P(=O)(O)O)c(Br)c3)c3ccc(Cl)c(Cl)c3)o2)c1)c1ccccc1 (centres unmarked) [Example 16, (3-{2-[[3-Bromo-4-(difluoro-phosphono-methyl)-benzyl]-(3,4-dichloro-phenyl)-amino]-oxazol-5-yl}-phenoxy)-phenyl-acetic acid]
20 | 6.30 to 7.00 | O=C(O)c1ccccc1-c1ccc(-c2cnc(N(Cc3ccc(C(F)(F)P(=O)(O)O)c(Br)c3)c3ccc(Cl)c(Cl)c3)o2)cc1 [Example 17, 4′-{2-[[3-Bromo-4-(difluoro-phosphono-methyl)-benzyl]-(3,4-dichloro-phenyl)-amino]-oxazol-5-yl}-biphenyl-2-carboxylic acid]
21 | 6.30 to 7.00 | O=C(O)c1ccccc1Oc1cccc(-c2cnc(N(Cc3ccc(C(F)(F)P(=O)(O)O)c(Br)c3)c3ccc(Cl)c(Cl)c3)o2)c1 [Example 18, 2-(3-{2-[[3-Bromo-4-(difluoro-phosphono-methyl)-benzyl]-(3,4-dichloro-phenyl)-amino]-oxazol-5-yl}-phenoxy)-benzoic acid]
22 | 5.00 to 6.00 | COC(=O)c1ccccc1-c1cccc(-c2cnc(N(Cc3ccc(C(F)(F)P(=O)(O)O)c(Br)c3)c3ccc(Cl)c(Cl)c3)o2)c1 [Example 19, 3′-{2-[[3-Bromo-4-(difluoro-phosphono-methyl)-benzyl]-(3,4-dichloro-phenyl)-amino]-oxazol-5-yl}-biphenyl-2-carboxylic acid methyl ester]
23 | 6.30 to 7.00 | O=C(O)c1ccccc1-c1cccc(-c2cnc(N(Cc3ccc(C(F)(F)P(=O)(O)O)c(Br)c3)c3ccc(Cl)c(Cl)c3)o2)c1 [Example 20, 3′-{2-[[3-Bromo-4-(difluoro-phosphono-methyl)-benzyl]-(3,4-dichloro-phenyl)-amino]-oxazol-5-yl}-biphenyl-2-carboxylic acid]
